Test results: the supplement of paper PMC10307832

How the values were obtained:
Experiment in all cases: relative viability (nuclei count vs DMSO), 5 days (fraction); higher = more cells survive
BMX-IN-1 + Pictilisib = compound: C=CC(=O)Nc1cc(-n2c(=O)ccc3cnc4ccc(-c5ccc(NS(C)(=O)=O)cc5)cc4c32)ccc1C [BMX-IN-1] + CS(=O)(=O)N1CCN(Cc2cc3nc(-c4cccc5[nH]ncc45)nc(N4CCOCC4)c3s2)CC1 [Pictilisib] (partner 1 µM)
Method in brief: (§1)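 After 5 days of treatment, lung cancer cells in 1536-well plates were fixed and stained in a single step (final 0.05% Triton X-100, 1% formaldehyde, 1 ug/ml Hoechst) and their nuclei counted on 4× images. Treatment had been applied by pin tool the day after seeding as one drug alone or as a fixed anchor-drug dose with five library-drug doses (not always all listed) in √10 steps. Relative viability is the nuclei count of treated wells divided by that of vehicle wells, and values are medians of duplicate plates.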

BMX-IN-1 + Linsitinib = compound: C=CC(=O)Nc1cc(-n2c(=O)ccc3cnc4ccc(-c5ccc(NS(C)(=O)=O)cc5)cc4c32)ccc1C [BMX-IN-1] + C[C@]1(O)C[C@@H](c2nc(-c3ccc4ccc(-c5ccccc5)nc4c3)c3c(N)nccn32)C1 [Linsitinib] (partner 1 µM)
Method in brief: as §1

PAC-1 + Palbociclib = compound: C=CCc1cccc(/C=N/NC(=O)CN2CCN(Cc3ccccc3)CC2)c1O [PAC-1] + CC(=O)c1c(C)c2cnc(Nc3ccc(N4CCNCC4)cn3)nc2n(C2CCCC2)c1=O [Palbociclib] (partner 0.5 µM)
Method in brief: as §1

PAC-1 + Pemetrexed = compound: C=CCc1cccc(/C=N/NC(=O)CN2CCN(Cc3ccccc3)CC2)c1O [PAC-1] + Nc1nc2[nH]cc(CCc3ccc(C(=O)N[C@@H](CCC(=O)O)C(=O)O)cc3)c2c(=O)[nH]1 [Pemetrexed] (partner 0.2 µM)
Method in brief: as §1

Cell Line | relative viability (BMX-IN-1 + Pictilisib; first compound 0.02 µM) | relative viability (BMX-IN-1 + Pictilisib; first compound 0.2 µM) | relative viability (BMX-IN-1 + Pictilisib; first compound 0.6325 µM) | relative viability (BMX-IN-1 + Pictilisib; first compound 2 µM) | relative viability (BMX-IN-1 + Linsitinib; first compound 0.02 µM) | relative viability (BMX-IN-1 + Linsitinib; first compound 0.2 µM) | relative viability (BMX-IN-1 + Linsitinib; first compound 0.6325 µM) | relative viability (BMX-IN-1 + Linsitinib; first compound 2 µM) | relative viability (PAC-1 + Palbociclib; first compound 0.02 µM) | relative viability (PAC-1 + Palbociclib; first compound 0.06325 µM) | relative viability (PAC-1 + Palbociclib; first compound 0.2 µM) | relative viability (PAC-1 + Palbociclib; first compound 2 µM) | relative viability (PAC-1 + Pemetrexed; first compound 0.02 µM) | relative viability (PAC-1 + Pemetrexed; first compound 0.06325 µM) | relative viability (PAC-1 + Pemetrexed; first compound 0.2 µM) | relative viability (PAC-1 + Pemetrexed; first compound 2 µM)
NCI-H2085 | 0.433 | 0.389 | 0.485 | 0.443 | 0.915 | 0.934 | 1.04 | 0.97 | 0.487 | 0.462 | 0.428 | 0.504 | 0.945 | 0.885 | 0.953 | 1.03
HCC-78 | 0.214 | 0.18 | 0.242 | 0.249 | 0.572 | 0.571 | 0.582 | 0.643 | 0.477 | 0.454 | 0.505 | 0.465 | 0.915 | 0.904 | 0.85 | 0.928
NCI-H647 | 0.498 | 0.356 | 0.396 | 0.471 | 1.36 | 1.8 | 1.25 | 1.02 | 0.288 | 0.37 | 0.35 | 0.409 | 0.176 | 0.207 | 0.163 | 0.168
NCI-H1299 | 0.838 | 0.934 | 0.906 | 0.563 | 1.2 | 0.986 | 1.13 | 1.12 |  |  |  |  |  |  |  | 
LU99A | 0.309 | 0.382 | 0.39 | 0.301 | 0.547 | 0.533 | 0.532 | 0.535 | 0.425 | 0.422 | 0.461 | 0.408 | 0.192 | 0.162 | 0.182 | 0.177
A549 | 0.69 | 0.757 | 0.56 | 0.517 | 0.627 | 0.973 | 0.808 | 0.552 |  |  |  |  |  |  |  | 
HARA | 0.4 | 0.284 | 0.482 | 0.397 | 1.2 | 1.21 | 0.851 | 0.886 | 0.228 | 0.225 | 0.247 | 0.329 | 0.23 | 0.234 | 0.264 | 0.239
NCI-H1944 | 0.386 | 0.352 | 0.387 | 0.336 | 1.34 | 1.22 | 1.33 | 1.2 | 0.272 | 0.347 | 0.374 | 0.371 | 0.595 | 0.65 | 0.623 | 0.627
LCLC-103H | 0.636 | 0.612 | 0.684 | 0.609 | 1.12 | 1.06 | 1.09 | 1.14 | 0.482 | 0.489 | 0.503 | 0.438 | 0.468 | 0.419 | 0.436 | 0.451
NCI-H1792 | 0.321 | 0.299 | 0.227 | 0.253 | 0.431 | 0.795 | 0.449 | 0.51 | 0.692 | 0.627 | 0.64 | 0.627 | 0.712 | 0.894 | 0.829 | 0.957
Calu-6 | 1.14 | 1.21 | 1.09 | 0.866 | 1.05 | 0.984 | 0.998 | 1.03 |  |  |  |  |  |  |  | 
SW 900 |  |  |  |  |  |  |  |  |  | 0.599 | 0.554 | 0.474 |  | 0.456 | 0.456 | 0.531
LOU-NH91 |  | 0.509 | 0.546 | 0.512 |  | 0.976 | 0.993 | 0.919 | 0.573 | 0.539 | 0.526 | 0.515 | 0.368 | 0.365 | 0.379 | 0.39
HCC-366 | 0.124 | 0.666 | 0.137 | 0.16 | 0.779 | 0.995 | 0.736 | 0.601 | 0.364 | 0.377 | 0.365 | 0.404 | 0.176 | 0.162 | 0.159 | 0.164
CAL-12T | 0.527 | 0.425 | 0.47 | 0.422 | 0.849 | 0.811 | 0.932 | 1.01 | 0.544 | 0.52 | 0.379 | 0.513 | 1.22 | 1.23 | 1.15 | 1.16
NCI-H1355 | 0.374 | 0.443 | 0.487 | 0.434 | 0.873 | 0.827 | 0.867 | 0.853 | 0.43 | 0.39 | 0.412 | 0.421 | 1.01 | 1.06 | 1.01 | 1.11
ABC-1 | 0.802 | 0.75 | 0.847 | 0.394 | 0.993 | 0.807 | 0.775 | 0.764 | 0.63 | 0.742 | 0.678 | 0.638 |  |  |  | 
NCI-H2405 | 0.505 | 0.444 | 0.484 | 0.393 | 1.01 | 0.875 | 0.975 | 0.921 | 0.53 | 0.502 | 0.502 | 0.509 | 1.08 | 1.06 | 1.06 | 1.02
NCI-H1648 |  |  |  |  |  |  |  |  | 0.299 | 0.243 | 0.26 | 0.228 | 0.676 | 0.838 | 0.81 | 0.646
NCI-H650 | 1.02 | 0.826 | 0.872 | 0.772 | 0.839 | 1.09 | 1.02 | 0.858 | 0.317 | 0.296 | 0.39 | 0.342 | 0.893 | 0.931 | 0.968 | 1.03
NCI-H2228 | 0.578 | 0.471 | 0.443 | 0.432 | 0.969 | 0.907 | 0.848 | 0.648 | 1.03 | 0.921 | 0.804 | 0.797 | 0.344 | 0.361 | 0.325 | 0.346
EPLC-272H | 0.35 | 0.31 | 0.304 | 0.377 | 1.19 | 1.35 | 1.42 | 1.01 | 0.279 | 0.28 | 0.293 | 0.268 | 0.355 | 0.32 | 0.341 | 0.348
